The values that follow come from publication PMC4810081, “Venetoclax (ABT-199) Might Act as a Perpetrator in Pharmacokinetic Drug–Drug Interactions” (Pharmaceutics, 2016).

In data set [1] the test system is cell lines used for P-gp, BCRP, and OATP inhibition assays. Kind of data set: Cytotoxicity assay (Cytotoxicity Detection Kit). Type of data set: cell-based. Conditions: up to 100 µM, all cell lines used. How it is done:
Prior to P-gp, BCRP, and OATP inhibition assays, venetoclax was tested in the respective cell lines for cytotoxic effects with the Cytotoxicity Detection Kit (Roche Applied Science, Mannheim, Germany). Venetoclax was not cytotoxic up to 100 µM in all cell lines used.

The subject of a further data set is ABCB1. The experiment in a line: Induction assay, ABCB1 mRNA by real-time RT-PCR in LS180 cells. It counts as in vitro ADME, human. To be noted: four days, at higher concentrations. How it is done:
(§1) LS180 cells. The human colon adenocarcinoma cell line LS180 (available at ATCC, Manassas, VA, USA) is one of the standard models for investigating pregnane X receptor (PXR) and aryl hydrocarbon receptor (AhR) mediated induction and was thus used for induction experiments. Cells were cultured under standard cell culture conditions with DMEM supplemented with 10% FCS, 2 mM of glutamine, 100 U/mL of penicillin, 100 µg/mL of streptomycin sulfate, and 0.1 mM of nonessential amino acids.
(§2) For the induction experiments, LS180 cells were seeded in 75 cm^2 culturing flasks and incubated for three days. […]
(§3) RNA was isolated using the GenElute™ Mammalian Total RNA Miniprep Kit, and cDNA was synthesized with the RevertAid™ H Minus First Strand cDNA Synthesis Kit according to the manufacturer's instructions. mRNA expression was quantified by real-time RT-PCR with the LightCycler® 480 (Roche Applied Science, Mannheim, Germany) as described previously. […] Data were evaluated via calibrator-normalized relative quantification with efficiency correction using the LightCycler® 480 software version 1.5 (Roche Applied Science, Mannheim, Germany). […] The following target genes were quantified: CYP1A1, CYP1A2, CYP3A4, ABCB1, ABCC2, ABCG2, SLCO1B1 (coding for OATP1B1), UDP-glucuronosyltransferase 1A3 (UGT1A3), and UGT1A9.
A general note: Real-time PCR tracks product formation cycle by cycle.

A further data set concerns UGT1A3. Kind of data set: Induction assay, UGT1A3 mRNA by real-time RT-PCR in LS180 cells. To be noted: four days, 10 µM. It counts as in vitro ADME, human. How it is done: as §1, §2, §3
For data set [2], the target named is T1, CYP1A2 (Homo sapiens, UniProt P05177).
T1 construct: purchased Promega Corporation (Madison, WI, USA)
T1 sequence (P05177 whole entry): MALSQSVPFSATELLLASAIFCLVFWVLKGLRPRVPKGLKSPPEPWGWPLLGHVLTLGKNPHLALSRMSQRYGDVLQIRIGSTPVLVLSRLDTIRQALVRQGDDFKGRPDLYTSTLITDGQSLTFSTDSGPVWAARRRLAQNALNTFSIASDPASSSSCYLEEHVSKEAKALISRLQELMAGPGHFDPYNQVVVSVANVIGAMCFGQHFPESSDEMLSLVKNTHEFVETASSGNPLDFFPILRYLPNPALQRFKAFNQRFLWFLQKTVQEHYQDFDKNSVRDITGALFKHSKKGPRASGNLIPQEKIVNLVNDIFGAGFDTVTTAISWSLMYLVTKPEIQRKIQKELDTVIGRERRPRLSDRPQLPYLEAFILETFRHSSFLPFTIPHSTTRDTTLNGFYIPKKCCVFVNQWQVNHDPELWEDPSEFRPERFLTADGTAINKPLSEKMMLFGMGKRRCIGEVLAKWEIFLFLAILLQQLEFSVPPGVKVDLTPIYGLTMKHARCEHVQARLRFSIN
The experiment in a line: CYP1A2 inhibition, P450-Glo CYP1A2 Screening System. It counts as in vitro ADME. To be noted: luciferin-ME substrate, 0.05–100 µM tested. How it is done:
Inhibition studies for CYP2B6, CYP2D6, CYP2C19 and CYP3A4 were performed with the CYP2B6/EFC, CYP2D6/AMMC, the CYP2C19/CEC, and the CYP3A4/BFC High Throughput Inhibitor Screening Kit according to the manufacturer’s instructions. The kits contain the respective recombinant CYP and fluorogenic substrates, which are blocked dyes emitting a fluorescence signal when cleaved by the enzyme. For testing CYP1A2 inhibition, the P450-Glo CYP1A2 Screening System was used according to the manufacturer’s instructions. The kit contains the luminogenic CYP1A2 substrate luciferin-ME, which is converted by CYP1A2 into luciferin-generating light when incubated with the luciferin detection reagent of the kit. Eight concentrations of venetoclax in duplicates (0.009–20 µM) were tested in the fluorescence assays, and eight concentrations in triplicate (0.05–100 µM) were tested for the luminogenic assay. Each experiment was conducted in triplicate.

The next data set concerns MDCKII. Kind of data set: Growth inhibition assay in MDCKII cells. It counts as cell-based. Conditions: Canis lupus familiaris, MDCK-II; MDCKII parental cells. An excerpt:
MDCKII cells. The transporter over-expressing cell lines MDCKII-MDR1 [5], MDCKII-MRP2 [6], and MDCKII-BCRP [7] and the corresponding parental cell line MDCKII were used to assess the sensitivity of cells with and without P-gp, multidrug resistance-associated protein 2 (MRP2/ABCC2), or BCRP expression. Moreover, MDCKII-BCRP cells were used to assess BCRP inhibition by venetoclax. MDCKII over-expressing cell lines were kindly provided by A. H. Schinkel and P. Borst (Amsterdam, The Netherlands). The parental cell line MDCKII (available at ATCC, Manassas, VA, USA) was used as a control. The cells were cultured in Dulbecco’s Modified Eagle’s Medium (DMEM) containing 10% FCS, 2 mM of glutamine, 100 U/mL of penicillin, and 100 µg/mL of streptomycin sulfate.
Growth inhibition assays in LS180 cells were conducted to determine suitable maximum concentrations for the induction assay without profound antiproliferative effects. Proliferation was quantified by crystal violet staining of the surviving cells as described previously. Each experiment was performed at least in triplicate with n = 8 wells for each concentration (0.1–100 µM). The IC20 for proliferation inhibition by venetoclax was 8.4 ± 1.0 µM; thus, the maximum concentration for the induction assay was set to 10 µM, ensuring that about 80% of the cells will survive. […]

The subject of the next data set is ABCC2. The experiment in a line: Induction assay, ABCC2 mRNA by real-time RT-PCR in LS180 cells. To be noted: four days, 0.01–10 µM. Type of data set: in vitro ADME, human. How it is done:
as §1, §2, §3

In the next data set the test system is LLC-PK1. The experiment in a line: Growth inhibition assay in LLC-PK1 cells. It counts as cell-based, porcine. To be noted: Sus scrofa. How it is done: LLC-PK1 and L-MDR1 cells. L-MDR1 cells, a porcine kidney epithelial cell line over-expressing the human ABCB1 gene and the corresponding parental control cell line LLC-PK1 (available from ATCC, Manassas, VA, USA) were used to assess the sensitivity of cells with and without P-gp over-expression. L-MDR1 cells were kindly provided by A. H. Schinkel (The Netherlands Cancer Institute, Division of Experimental Therapy, Amsterdam, The Netherlands). The cells were cultured under standard cell culture conditions with medium M199 supplemented with 10% FCS, 2 mM of glutamine, 100 U/mL of penicillin, and 100 µg/mL of streptomycin sulfate. To maintain P-gp/ABCB1 expression the culture medium for L-MDR1 was supplemented with 0.64 µM of vincristine. One day before seeding the cells for the growth inhibition assay, both cell lines were fed with a vincristine-free culture medium.
Growth inhibition assays in LS180 cells were conducted to determine suitable maximum concentrations for the induction assay without profound antiproliferative effects. Proliferation was quantified by crystal violet staining of the surviving cells as described previously. Each experiment was performed at least in triplicate with n = 8 wells for each concentration (0.1–100 µM). […]

For data set [3], the system named is CYP1A2. Kind of data set: Induction assay, CYP1A2 mRNA by real-time RT-PCR in LS180 cells. Type of data set: in vitro ADME, human. To be noted: four days, 10 µM. How it is done:
as §1, §2, §3

One may read the IC50 as the concentration that gives 50% inhibition. For the compound `CC1(C)CCC(CN2CCN(c3ccc(C(=O)NS(=O)(=O)c4ccc(NCC5CCOCC5)c([N+](=O)[O-])c4)c(Oc4cnc5[nH]ccc5c4)c3)CC2)=C(c2ccc(Cl)cc2)C1` [Venetoclax], the cytotoxic effects result in data set [1] was “not cytotoxic”. Further, the “mRNA expression of ABCB1” value with ABCB1 is listed as “suppressed”. For the same compound, the “mRNA expression of UGT1A3” value in the data set with UGT1A3 is reported as “induced”. Also, the “IC50 CYP1A2 inhibition” value against CYP1A2 [2] is listed as “no inhibition”. The IC50 in the data set on MDCKII amounted to 15.2 ± 2.4 µM; in the data set with LLC-PK1 (LLC-PK1, LLC-PK1 + LY335979 (1 µM)), 24.9 ± 1 µM; in the data set with LLC-PK1 (LLC-PK1, LLC-PK1 parental cells), 21 ± 0.7 µM. Also, the “mRNA expression of ABCC2” value with ABCC2 is recorded as “unchanged”. The “mRNA expression of CYP1A2” value in the data set on CYP1A2 [3] is reported as “induced”.
